This is an account of results in patent US7368279B2, “Three dimensional bioengineered smooth muscle tissue and sphincters and methods therefor” (The Regents of The University of Michigan, priority 2004, dated 2008).

SMILES strings stand for the structures.

One test deals with bioengineered IAS rings. Description: Isometric force (contraction/relaxation) of bioengineered IAS rings. It is filed as cell-based, rabbit. Here is the method: Excitability and contractility of bioengineered IAS rings was measured using techniques adapted from previous work (Dennis et al., In Vitro Cellular & Developmental Biology Animal 36: 327-335, 2000. Dennis et al., American Journal of Physiology Cell Physiology 280: C288-C295, 2001). The diameter of the sphincter rings was measured and used to calculate cross-sectional area (CSA). The bioengineered sphincters were separated from their molds using forceps (FIG. 1 Panel E) and the minimum ring diameter was measured using a calibrated eyepiece and a 5× or 10× objective lens on an inverted microscope (Zeiss Axiovert 25, Thornwood, N.Y.). The cross section was circular, and therefore the CSA was calculated using the measured diameter. To measure the passive baseline force, the differentiation media in the plate containing the bioengineered sphincter was replaced with 37° C. Krebs solution (NaCl (119 mM), KCl (4.6 mM), NaHCO3 (15 mM), CaCl2 (1.5 mM), MgCl2 (1.2 mM), […], and glucose (11 mM)) and the plate was placed on a heated aluminum platform, which maintained a temperature of 37° C. until the testing was complete. For contractility measurements, one end of the bioengineered sphincter was anchored by a stainless steel pin (10 mm×0.1 mm diameter) to the PDMS substrate within the plate, while another stainless steel pin was bent in the shape of a hook and attached by canning wax to a force transducer (resolution of 1.4 μN and range of 2mN) as previously described (Dennis et al., In Vitro Cellular & Developmental Biology Animal 36: 327-335, 2000, Macpherson et al., J Physiol 500: 523-533, 1997) and as depicted in FIG. 1 (Panels F and G). The bioengineered sphincter was stretched approximately 50% of its resting length using a three-axis micromanipulator. The ring was allowed to sit for 20 minutes in order to reestablish a stable baseline level of force (Pb), which was measured as the average baseline passive force preceding stimulation. All force measurements were collected at 100 samples/second for 60 seconds and recorded using a computer with LabVIEW data acquisition software (National Instruments, Austin, Tex.). A median filter of rank 2 was applied to all raw force data before being stored to minimize digitization noise without causing a phase delay for rapidly changing forces. The peak isometric force (ΔP) was determined by subtracting the Pb from the total force values. Specific force (sΔP) was calculated by dividing ΔP by the CSA. Data analysis was done using LabVIEW and Microsoft Excel software programs. Each measurement was repeated at least three times and the mean value was recorded. Contractions were induced in the rings by the addition of acetylcholine. Dose-response relationships of acetylcholine were investigated in the range of 10^−6M to 10^−10M. Incremental doses of acetylcholine were added after the maximal response of the preceding concentration and the establishment of a new baseline. Relaxation response in the rings was induced by the addition of 8-Bromoadenosine 3′:5′-Cyclic Monophosphate (8-br-cAMP). Maximal relaxation was achieved after approximately 4 minutes and therefore relaxation measurements are collective of four consecutive 1-minute data recordings.

Test [1] relates to isolated smooth muscle cells from the rabbit IAS. Description: Acetylcholine-induced contraction of isolated IAS smooth muscle cells (decrease in cell length). It is filed as cell-based. To be noted: for contraction, percent decrease in cell length from control: 10^−7 M acetylcholine, HEPES buffer; for decrease in cell length: acetylcholine, 0 Ca2+/2 mM EGTA HEPES buffer. The source says: Smooth muscle cells were isolated from the internal anal sphincter (IAS) of New Zealand White rabbits as described previously (Bitar et al., Am J Physiol 260: G537-G542, 1991; Bitar et al., Am J Physiol 242: G400-G407, 1982). Briefly, the IAS, consisting of the most distal 3 mm of the circular muscle layer, ending at the junction of skin and mucosa, was removed by sharp dissection. The sphincter was rapidly cleaned and striped of connective tissue in ice cold carbonated Krebs solution containing 2% penicillin-streptomycin. The tissue was cut into small pieces and transferred to a 100 mm plate containing 15 ml of HEPES buffer (pH 7.4; NaCl (115 mM), KCl (5.7 mM), KH2PO4 (2.0 mM), HEPES (24.6 mM), CaCl2 (1.9 mM), MgCl2 (0.6 mM), glucose (5.6 mM), 0.01% soybean trypsin inhibitor, and 0.184 (wt/vol) DMEM) with 0.1% collagenase type II (Worthington Biochemical Corp., Lakewood, N.J.) for digestion in an incubator (37° C. with 5% CO2) for 1 hour. Fresh HEPES buffer (15 ml) with collagenase was added and the contents of the plate were mechanically dissociated using a 10 ml pipette and incubated for 1 additional hour. After the second digestion period, the cells were collected, centrifuged at 800×g for 10 minutes and the supernatant discarded. The cells were washed (3×) a to ensure removal of excess collagenase and ultimately re-suspended in either HEPES buffer or 0 Ca^2+/2 mM EGTA HEPES buffer (HEPES without CaCl2 and containing 2 mM EGTA). To determine the effect of acetylcholine on contraction of isolated muscle cells, acetylcholine (10^−7 M) was added to a suspension of isolated smooth muscle cells for 30 seconds or 4 minutes with untreated cells as controls. The reaction was stopped and cells were fixed by the addition of 0.1 ml of acrolein at a final concentration of 0.1%. Individual cell lengths were measured by computerized image micrometry (Bitar et al., Am J Physiol 242: G400-G407, 1982. Bitar et al., Science 216: 531-533, 1982). The length of cells in the control state or after addition of acetylcholine was obtained by measuring 30-50 cells encountered randomly in successive microscopic fields from each of three separate experiments. The contractile response is defined as the decrease in the average length of the cells counted and is expressed as the percent change from the control length.

Regarding `CC(=O)OCC[N+](C)(C)C` [acetylcholine], in the test on bioengineered IAS rings (10-fold incremental doses 10^−10 M to 10^−6 M), the “concentration at which the concentration-dependent contractile response reaches a plateau” value was 10^−7 M. Besides, the “peak isometric force ΔP” value in the test with bioengineered IAS rings (10^−7 M acetylcholine, Krebs buffer, sustained for 4 minutes) was found to be 9.8±3.8 μN. Moreover, the “maximal ΔP induced by acetylcholine stimulation” value with bioengineered IAS rings (Krebs buffer) is given as 33.7 μN. Moreover, in test [1] (30 seconds), the “contraction, percent decrease in cell length from control” value was 28.85±3.20% and the “decrease in cell length” value is listed as 0.5±4.47%. Besides, in test [1] (4 minutes), the “contraction, percent decrease in cell length from control” value came out at 27.09±4.43% and the “decrease in cell length” value stood at 4±3.91%.
